# According to ChEMBL document CHEMBL6096725, “Repurposing Linezolid in Conjunction with Histone Deacetylase Inhibitor Access in the Realm of Glioblastoma Therapies” (J Med Chem, 2025):
# Activity calls are given as the source filed them. No cut-off for these calls is given here.
# Legend:
# TZM-resistant GBM cell [1] = assay: Disruption of DNA repair in patient-derived human TMZ-resistant GBM cells assessed as decrease in CtIP level at 20 uM upto 80 hrs by Western blot analysis; type: functional, cell-based
# TZM-resistant GBM cell [2] = assay: Disruption of DNA repair in patient-derived human TMZ-resistant GBM cells assessed as decrease in RAD51 level at 20 uM upto 80 hrs by Western blot analysis; type: functional, cell-based
# [3] = target: T1, Histone deacetylase (Homo sapiens) (UniProt Q13547+O15379+Q9UBN7+Q92769+Q9UQL6+Q8WUI4+Q9BY41+Q96DB2+P56524+Q9UKV0+Q969S8); assay: Inhibition of HDAC in human U-87 MG cells assessed as increase in acetyl histone H3 at K8 sites at 10 uM incubated for 1 hr by Western blot analysis; type: cell-based
# Mus musculus = assay: In vivo antitumor activity against patient-derived human TMZ-resistant GBM cells implanted in C57BL/6 mouse assessed as increase in animal survival at 10 to 20 mg/kg administered on every 3 days measured for 60 days in presence of TMZ; type: functional, organism-based; details: dose 10-20 mg/kg, time 60.0 day
# TZM-resistant GBM cell [4] = assay: Disruption of DNA repair in patient-derived human TMZ-resistant GBM cells assessed as increase in ATM phosphorylation upto 80 uM incubated for 72 hrs by Western blot analysis; type: functional, cell-based
# U-87 MG [5] = assay: Disruption of DNA homologous recombination repair in human U-87 MG cells assessed as HR repaired cells at 5 uM incubated for 48 hrs by flow cytometry relative to control; type: functional, U-87MG ATCC
# TZM-resistant GBM cell [6] = assay: Induction of RAD51 degradation in human TMZ-resistant GBM cells assessed increase in RAD51 ubiquitination upto 20 uM incubated for 24 hrs by Western blot analysis; type: cell-based
# [7] = Drug uptake in C57BL/6 mouse plasma at 360 mg/kg, ip measured after 30 mins by UPLC analysis; type: ADME, organism-based; details: in vivo, 0.5 h
# TMZ-resistant CT-2A cell [8] = assay: Antitumor activity against mouse CT-2A cells implanted in C57BL/6 mouse assessed as tumor growth inhibition at 10 mg/kg, ip measured for 10 to 17 days by IVIS analysis; type: functional, organism-based; details: time 10-17 day
# [9] = target: T1, Histone deacetylase (Homo sapiens); assay: Inhibition of HDAC in human U-87 MG cells assessed as increase in acetyl histone H3 at K4 sites at 10 uM incubated for 1 hr by Western blot analysis; type: cell-based
# [10] = target: T1, Histone deacetylase (Homo sapiens); assay: Inhibition of HDAC in human U-87 MG cells assessed as increase in acetyl histone H3 at K14 sites at 10 uM incubated for 1 hr by Western blot analysis; type: cell-based
# TZM-resistant GBM cell [11] = assay: Induction of cell cycle arrest in patient-derived human TMZ-resistant GBM cells assessed as decrease in accumulation of cells at G0/G1 phase at 1 to 20 uM; type: functional, cell-based; details: dose 1-20 µM
# [12] = target: T1, Histone deacetylase (Homo sapiens); assay: Inhibition of HDAC in human U-87 MG cells assessed as increase in acetyl histone H3 at K27 sites at 10 uM incubated for 1 hr by Western blot analysis; type: cell-based
# [13] = target: T1, Histone deacetylase (Homo sapiens); assay: Inhibition of HDAC in human U-87 MG cells assessed as increase in acetyl histone H3 at K56 sites at 10 uM incubated for 1 hr by Western blot analysis; type: cell-based
# [14] = Drug uptake in C57BL/6 mouse brain at 360 mg/kg, ip measured after 30 mins by UPLC analysis; type: ADME, organism-based; details: in vivo, 0.5 h
# TZM-resistant GBM cell [15] = assay: Disruption of DNA repair in patient-derived human TMZ-resistant GBM cells assessed as decrease in RAD51 level upto 80 uM incubated for 72 hrs by Western blot analysis; type: functional, cell-based
# U-87 MG [16] = assay: Disruption of DNA homologous recombination repair in human U-87 MG cells assessed as HR repaired cells at 2.5 uM incubated for 48 hrs by flow cytometry relative to control; type: functional, U-87MG ATCC
# TZM-resistant GBM cell [17] = assay: Disruption of DNA repair in patient-derived human TMZ-resistant GBM cells assessed as decrease in CtIP level at 40 uM upto 80 hrs by Western blot analysis; type: functional, cell-based
# [18] = target: T1, Histone deacetylase (Homo sapiens); assay: Inhibition of HDAC in human U-87 MG cells assessed as increase in acetyl histone H3 at K16 sites at 10 uM incubated for 1 hr by Western blot analysis; type: cell-based
# [19] = target: T1, Histone deacetylase (Homo sapiens); assay: Inhibition of HDAC in human U-87 MG cells assessed as increase in acetyl histone H3 at K18 sites at 10 uM incubated for 1 hr by Western blot analysis; type: cell-based
# [20] = target: T1, Histone deacetylase (Homo sapiens); assay: Inhibition of HDAC in human U-87 MG cells assessed as increase in acetyl histone H3 at K9 sites at 10 uM incubated for 1 hr by Western blot analysis; type: cell-based
# TZM-resistant GBM cell [21] = assay: Effect on cellular proliferation dynamics in patient-derived human TMZ-resistant GBM cells at 10 uM incubated for 72 hrs by RNA-seq analysis; type: functional, cell-based
# TZM-resistant GBM cell [22] = assay: Disruption of DNA repair in patient-derived human TMZ-resistant GBM cells assessed as decrease in RPA32 level upto 80 uM incubated for 72 hrs by Western blot analysis; type: functional, cell-based
# TZM-resistant GBM cell [23] = assay: Induction of cell cycle arrest in patient-derived human TMZ-resistant GBM cells assessed as accumulation of cells at G2/M phase at 1 to 20 uM; type: functional, cell-based; details: dose 1-20 µM
# TZM-resistant GBM cell [24] = assay: Disruption of DNA repair in patient-derived human TMZ-resistant GBM cells assessed as decrease in RAD51 level at 40 uM upto 80 hrs by Western blot analysis; type: functional, cell-based
# [25] = target: T1, Histone deacetylase (Homo sapiens); assay: Inhibition of HDAC in human U-87 MG cells assessed as increase in acetyl histone H3 at K5 sites at 10 uM incubated for 1 hr by Western blot analysis; type: cell-based
# TZM-resistant GBM cell [26] = assay: Antitumor activity against patient-derived human TMZ-resistant GBM cells implanted in C57BL/6 mouse assessed as inhibition of tumor cell growth in brain at 10 to 20 mg/kg administered on every 3 days measured for 60 days in presence of TMZ; type: functional, organism-based; details: dose 10-20 mg/kg, time 60.0 day
# TZM-resistant GBM cell [27] = assay: Disruption of DNA repair in patient-derived human TMZ-resistant GBM cells assessed as decrease in CtIP level upto 80 uM incubated for 72 hrs by Western blot analysis; type: functional, cell-based
# TZM-resistant GBM cell [28] = assay: Suppression of mitotic nuclear division in patient-derived human TMZ-resistant GBM cells by GSEA analysis; type: functional, cell-based
# TZM-resistant GBM cell [29] = assay: Suppression of DNA replication in patient-derived human TMZ-resistant GBM cells by GSEA analysis; type: functional, cell-based
# TMZ-resistant CT-2A cell [30] = assay: Antitumor activity against mouse TMZ-resistant CT-2A cells implanted in C57BL/6 mouse assessed as tumor growth inhibition at 50 mg/kg, po measured for 17 to 25 days by IVIS analysis; type: functional, organism-based; details: time 17-25 day
smiles,measurement,setting,value
C[C@@H]1C[C@@H]([C@H](O)CC2CC(=O)NC(=O)C2)C(=O)[C@@H](C)C1,Activity,TZM-resistant GBM cell [1],Active; Less Pronounced Effect Observed
same,Activity,TZM-resistant GBM cell [2],Active; Less Pronounced Effect Observed
O=C(/C=C/c1ccc(CNC[C@H]2CN(c3ccc(N4CCOCC4)c(F)c3)C(=O)O2)cc1)NO,inhibition,[3],Active
same,Activity,Mus musculus,Active
same,Activity,TZM-resistant GBM cell [4],Active; Result Suggests Activation Of Physiological Response To Dsbs Induced By Compound
same,Activity,U-87 MG [5],5.06%
same,Activity,TZM-resistant GBM cell [6],Active
same,Drug uptake,[7],Active
same,inhibition,TMZ-resistant CT-2A cell [8],Active
same,inhibition,[9],Active
same,inhibition,[10],Active
same,Activity,TZM-resistant GBM cell [11],Active
same,inhibition,[12],Active
same,inhibition,[13],Active
same,Drug uptake,[14],Active
same,Activity,TZM-resistant GBM cell [15],Active
same,Activity,U-87 MG [16],11.4%
same,Activity,TZM-resistant GBM cell [17],Active; Rapid And Significant Decrease In Expression Observed Over Time
same,inhibition,[18],Active
same,inhibition,[19],Active
same,inhibition,[20],Active
same,Activity,TZM-resistant GBM cell [21],Active
same,Activity,TZM-resistant GBM cell [22],Active
same,Activity,TZM-resistant GBM cell [23],Active
same,Activity,TZM-resistant GBM cell [24],Active; Rapid And Significant Decrease In Expression Observed Over Time
same,inhibition,[25],Active
same,inhibition,TZM-resistant GBM cell [26],Active
same,Activity,TZM-resistant GBM cell [27],Active
same,Activity,TZM-resistant GBM cell [28],Active
same,Activity,TZM-resistant GBM cell [29],Active
same,inhibition,TMZ-resistant CT-2A cell [30],Active
